According to PubChem BioAssay AID330 (DTP/NCI, 2004):
“And” between values parts separate entries of the source, which are not always exact repeats. Equal entries are not always repeated. Inconclusive results and toxic doses are left out. How the source made its calls: active means survival T/C of 150% or more; inactive means T/C below 125% in these data. Peptide text beside a SMILES is read from it. * marks the point of attachment. Cbz = O=C(OCc1ccccc1)*

Tested on: P388 leukemia ip, CD2F1 mice, survival T/C
Test: NCI In Vivo Anticancer Drug Screen. Data for tumor model P388 Leukemia (intraperitoneal) in CD2F1 (CDF1) mice
Conditions: endpoint: median survival time, higher = longer survival
How it was run: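 Mice carrying the transplanted tumor received test compound or vehicle. Survival was recorded in each group, and the value is the treated-group measurement divided by that of the vehicle-treated control group.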

[1] = dose: 100.0 mg/kg/injection, schedule: Q04DX003 (ip), vehicle: saline
[2] = dose: 50.0 mg/kg/injection, schedule: Q01DX005 (ip), vehicle: Klucel (hydroxypropylcellulose) (HPC)
[3] = dose: 100.0 mg/kg/injection, schedule: Q01DX005 (ip), vehicle: Klucel (hydroxypropylcellulose) (HPC)
[4] = dose: 200.0 mg/kg/injection, schedule: Q01DX005 (ip), vehicle: Klucel (hydroxypropylcellulose) (HPC)
[5] = dose: 60.0 mg/kg/injection, schedule: Q01DX005 (ip), vehicle: saline with Tween-80
[6] = dose: 120.0 mg/kg/injection, schedule: Q01DX005 (ip), vehicle: saline with Tween-80
[7] = dose: 240.0 mg/kg/injection, schedule: Q01DX005 (ip), vehicle: saline with Tween-80
[8] = dose: 25.0 mg/kg/injection, schedule: Q04DX002 (ip), vehicle: saline with Tween-80
[9] = dose: 50.0 mg/kg/injection, schedule: Q04DX002 (ip), vehicle: saline with Tween-80
[10] = dose: 50.0 mg/kg/injection, schedule: Q01DX009 (ip), vehicle: saline with Tween-80
[11] = dose: 100.0 mg/kg/injection, schedule: Q01DX009 (ip), vehicle: saline with Tween-80
[12] = dose: 200.0 mg/kg/injection, schedule: Q01DX009 (ip), vehicle: saline with Tween-80
[13] = dose: 200.0 mg/kg/injection, schedule: Q01DX009 (ip), vehicle: saline
[14] = dose: 25.0 mg/kg/injection, schedule: Q01DX009 (ip), vehicle: saline with Tween-80
[15] = dose: 60.0 mg/kg/injection, schedule: Q01DX005 (ip), vehicle: Klucel (hydroxypropylcellulose) (HPC)
[16] = dose: 120.0 mg/kg/injection, schedule: Q01DX005 (ip), vehicle: Klucel (hydroxypropylcellulose) (HPC)
[17] = dose: 12.5 mg/kg/injection, schedule: Q01DX005 (ip), vehicle: Klucel (hydroxypropylcellulose) (HPC)
[18] = dose: 25.0 mg/kg/injection, schedule: Q01DX005 (ip), vehicle: Klucel (hydroxypropylcellulose) (HPC)
[19] = dose: 240.0 mg/kg/injection, schedule: Q01DX005 (ip), vehicle: Klucel (hydroxypropylcellulose) (HPC)
[20] = dose: 50.0 mg/kg/injection, schedule: Q01DX009 (ip), vehicle: Klucel (hydroxypropylcellulose) (HPC)
[21] = dose: 100.0 mg/kg/injection, schedule: Q01DX009 (ip), vehicle: Klucel (hydroxypropylcellulose) (HPC)
[22] = dose: 200.0 mg/kg/injection, schedule: Q01DX009 (ip), vehicle: Klucel (hydroxypropylcellulose) (HPC)
[23] = dose: 100.0 mg/kg/injection, schedule: Q01DX001 (ip), vehicle: saline with Tween-80
[24] = dose: 200.0 mg/kg/injection, schedule: Q01DX001 (ip), vehicle: saline with Tween-80
[25] = dose: 400.0 mg/kg/injection, schedule: Q01DX001 (ip), vehicle: saline with Tween-80

Measured: T/C

COSc1cccc(C(F)(F)F)c1
inactive: [1] 100 % of control | dose: 200.0 mg/kg/injection, schedule: Q04DX003 (ip), vehicle: saline 100 % of control | dose: 400.0 mg/kg/injection, schedule: Q04DX003 (ip), vehicle: saline 97 % of control

Cc1cc2cc(C)nc(C)c2c(C)n1
inactive: [2] 94 % of control | [3] 89 % of control | [4] 92 % of control

C=C1N=NN(c2cccc(C(F)(F)F)c2)C1N1CCOCC1 (configuration not stated)
inactive: [5] 99 % of control | [6] 100 % of control

N[C@@H](Cc1ccccc1)C(=O)NCCNC(=O)[C@@H](N)Cc1ccccc1
inactive: [5] 103 % of control | [6] 100 % of control | [7] 104 % of control

COC(=O)C1CC(C)C1(OC)OC (configuration not stated)
inactive: dose: 60.0 mg/kg/injection, schedule: Q01DX005 (ip), vehicle: saline 106 % of control | dose: 120.0 mg/kg/injection, schedule: Q01DX005 (ip), vehicle: saline 107 % of control | dose: 240.0 mg/kg/injection, schedule: Q01DX005 (ip), vehicle: saline 101 % of control

c1ccc2c(NCC3CCNCC3)c3ccccc3nc2c1
inactive: [8] 124 % of control | [9] 112 % of control

COC(=O)c1ccoc1
inactive: [10] 96 % of control | dose: 50.0 mg/kg/injection, schedule: Q01DX009 (ip), vehicle: saline 116 % of control | [11] 108 % of control | [12] 123 % of control | [13] 113 % of control | dose: 400.0 mg/kg/injection, schedule: Q01DX009 (ip), vehicle: saline 107 % of control

O=C1CCCc2c1[nH]c1ccccc21
inactive: [14] 100 % of control | [10] 105 % of control | [11] 108 % of control | [12] 104 % of control

FC(F)(F)c1ccc(-c2nn[nH]n2)cc1
inactive: [15] 107 % of control | [16] 101 % of control

N#Cc1c(-c2ccccc2)c(C#N)c(=O)n(N)c1N
inactive: [2] 91 % of control and 93 % of control | [3] 86 % of control | [4] 86 % of control

C(=N\Nc1nnc(-c2ccccc2)c(-c2ccccc2)n1)/c1cccnc1
inactive: dose: 12.5 mg/kg/injection, schedule: Q01DX005 (ip), vehicle: saline with Tween-80 86 % of control | dose: 25.0 mg/kg/injection, schedule: Q01DX005 (ip), vehicle: saline with Tween-80 96 % of control | dose: 50.0 mg/kg/injection, schedule: Q01DX005 (ip), vehicle: saline with Tween-80 89 % of control | dose: 200.0 mg/kg/injection, schedule: Q01DX005 (ip), vehicle: saline with Tween-80 90 % of control

CCC(CC)c1ccccn1
inactive: dose: 100.0 mg/kg/injection, schedule: Q01DX009 (ip), vehicle: saline 101 % of control | [1] 122 % of control | [13] 105 % of control

C=CC(C)(C)c1ccc(O)c(CC=C(C)C)c1
inactive: [17] 100 % of control | [18] 102 % of control | [2] 102 % of control

O=C1C=CC(=O)C1=Cc1ccc([N+](=O)[O-])cc1
inactive: dose: 2.5 mg/kg/injection, schedule: Q04DX002 (ip), vehicle: saline with Tween-80 100 % of control | dose: 5.0 mg/kg/injection, schedule: Q04DX002 (ip), vehicle: saline with Tween-80 104 % of control | dose: 10.0 mg/kg/injection, schedule: Q04DX002 (ip), vehicle: saline with Tween-80 101 % of control | [8] 96 % of control | [9] 98 % of control

O=C(Nc1ccc(Cl)c([N+](=O)[O-])c1)Nc1nc2ccccc2s1
inactive: [2] 98 % of control | [3] 86 % of control | [4] 87 % of control

OCC(O)Cn1cnc2c(NO)ncnc21 (configuration not stated)
inactive: [15] 101 % of control | [16] 95 % of control | [19] 100 % of control

CN1C(=O)/C(=C2\SC(=O)N(CN3CCCCC3)C2=O)c2cc(Br)ccc21
inactive: [15] 90 % of control | [16] 90 % of control | [19] 95 % of control

CCCCCCC(O)CCCCCCCCCCC(N)=O (configuration not stated)
inactive: dose: 6.25 mg/kg/injection, schedule: Q01DX005 (ip), vehicle: Klucel (hydroxypropylcellulose) (HPC) 99 % of control | [17] 96 % of control | [18] 94 % of control

COc1ccc(N2CCN(/C=C3\Cc4c(F)cccc4C3=O)CC2)cc1
inactive: dose: 100.0 mg/kg/injection, schedule: Q04DX003 (ip), vehicle: Klucel (hydroxypropylcellulose) (HPC) 97 % of control | dose: 200.0 mg/kg/injection, schedule: Q04DX003 (ip), vehicle: Klucel (hydroxypropylcellulose) (HPC) 103 % of control | dose: 400.0 mg/kg/injection, schedule: Q04DX003 (ip), vehicle: Klucel (hydroxypropylcellulose) (HPC) 101 % of control

O=P(c1ccccc1)(c1ccccc1)C(O)c1cccs1 (configuration not stated)
inactive: [20] 90 % of control | [21] 88 % of control | [22] 92 % of control

CC(=N)C(C#N)C(=S)SCCC#N (configuration not stated)
inactive: [20] 97 % of control | [21] 89 % of control | [22] 106 % of control

O=C1Nc2c(ccc3c2NCCC3)C2CCCC12 (configuration not stated)
inactive: [23] 94 % of control | [24] 94 % of control | [25] 90 % of control

N#CC(=Nc1ccccc1)c1cccc(Br)c1
inactive: [20] 109 % of control | [21] 109 % of control | [22] 117 % of control

Cc1nn(C)cc1P(=O)(c1ccccc1)c1ccccc1
inactive: [2] 98 % of control | [3] 96 % of control

CCCn1c(CC)nc2c(cnn2C)c1=O
inactive: [2] 101 % of control | [3] 101 % of control | [4] 101 % of control

CC(Cl)(c1ccccc1)C1OCCO1 (configuration not stated)
inactive: [5] 100 % of control | [6] 101 % of control | [7] 102 % of control

CC1=C(C(N)=O)C(c2ccc([N+](=O)[O-])cc2)NC(=S)N1 (configuration not stated)
inactive: [15] 92 % of control | [16] 90 % of control | [19] 92 % of control

CCC(C)C(NC(=O)OCc1ccccc1)C(=O)NC(CCSC)C(=O)O (stereo not drawn) (Cbz-Ile-Met-OH; configuration not given here)
inactive: [2] 99 % of control | [3] 100 % of control | [4] 96 % of control

CN(C)B(N(C)C)N(C)C
inactive: [5] 101 % of control | [6] 102 % of control

CCC(c1ccc(OC)cc1)C(NCC(=O)NNC(=S)Nc1ccccc1)c1ccc(OC)cc1 (configuration not stated)
inactive: [23] 92 % of control | [24] 101 % of control | [25] 108 % of control

NS(=O)(=O)c1ccc(NC(=O)Nc2c(Cl)cccc2Cl)cc1
inactive: [20] 96 % of control | [21] 87 % of control | [22] 95 % of control

O=C1/C(=C/c2cccnc2)CCc2ccccc21
inactive: [14] 104 % of control | [20] 116 % of control | [10] 108 % of control | [21] 102 % of control | [11] 105 % of control | [22] 109 % of control | [12] 95 % of control
